# Test results from patent US9644019B2, “Compounds for treating cardiac damage after ischaemia/reperfusion” (priority 2010, dated 2017).
# Legend:
# [1] = tested on: EMMPRIN-induced MMP-9 expression; test: EMMPRIN-induced MMP-9 expression in MAEC cells (anti-MMP-9 immunodetection); format: cell-based, mouse; details: 100 μM DETA-NO, AP-9 peptide 0.08 mg/ml overnight, vs PBS
# Description: MAEC cells were incubated with 100 μM of DETA-NO to induce EMMPRIN expression (B, D). MAEC cells without DETA-NO were used as a control (A, C). After 3 hours of treatment with DETA-NO, the MAEC cells were incubated overnight with AP-9 peptide (0.08 mg/ml) (C, D) or with PBS (A, B). The MAEC cells were fixed with 4% PFA, and MMP-9 expression was detected using an anti-MMP-9 antibody (1:1000). […] The cores were stained with DAPI.
# Likewise, to ascertain if AP-9 peptide inhibited EMMPRIN-induced MMP-9 expression, MAEC cells were incubated with 100 μM of DETA-NO to induce EMMPRIN expression. After 3 hours of treatment with DETA-NO, the MAEC cells were incubated overnight with AP-9 peptide (0.08 mg/ml) or with PBS as a control without peptide. MAEC cells without DETA-NO were used as a control. Finally, the MAEC cells were fixed with 4% PFA and MMP-9 expression was detected using an anti-MMP-9 antibody (1:1000).
# [2] = target: T1, EMMPRIN (Mus musculus, UniProt P18572); test: AP-9 peptide / EMMPRIN co-localization in MAEC cells; format: binding; details: DETA-NO 100 μM overnight, 0.08 mg/ml AP-9 peptide
# T1 construct: Said cells were incubated overnight with the nitric oxide donor (DETA-NO) (100 μM) to induce EMMPRIN expression; endogenous in cells; host or cells: MAEC (mouse aortic endothelial cells), fixed with 4% PFA
# T1 sequence (P18572 22-273 isoform P18572-2 limits assumed): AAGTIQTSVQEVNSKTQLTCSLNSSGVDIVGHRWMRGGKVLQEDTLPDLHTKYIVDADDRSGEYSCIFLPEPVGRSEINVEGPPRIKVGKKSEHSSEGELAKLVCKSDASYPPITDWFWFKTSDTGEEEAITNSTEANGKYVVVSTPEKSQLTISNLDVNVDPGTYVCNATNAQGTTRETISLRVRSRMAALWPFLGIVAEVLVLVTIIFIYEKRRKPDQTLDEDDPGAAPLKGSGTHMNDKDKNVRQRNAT
# Description: The MAEC cells were incubated overnight with the nitric oxide donor (DETA-NO) (100 μM) to induce EMMPRIN expression (right panel). The MAEC cells without DETA-NO were used as a control (left panel). The MAEC cells were fixed with 4% PFA and incubated with 0.08 mg/ml of AP-9 peptide. EMMPRIN expression was detected using an anti-EMMPRIN antibody (1:1000), observing that both signals co-localize (right panel, top right square). The cores were stained with DAPI.
# MAEC cells (mouse aortic endothelial cells) were used for the in vitro assays. Said cells were incubated overnight with the nitric oxide donor (DETA-NO) (100 μM) to induce EMMPRIN expression. The MAEC cells without DETA-NO were used as a control. The MAEC cells were fixed with 4% PFA and incubated with 0.08 mg/ml of AP-9 peptide. EMMPRIN expression was subsequently detected using an anti-EMMPRIN antibody (1:1000).
sequence,measurement,setting,value
"YKLPGHHHHYRP (SEQ ID NO: 3) [AP-9 peptide, EMMPRIN antagonist peptide described in the literature]",EMMPRIN-induced MMP-9 expression,[1],inhibition
same,binding to EMMPRIN (co-localization of signals),[2],binds specifically
